Experiments:
RUNX2 [1] = assay: Computational studies and preliminary experimental studies of related disease models: Runx2 expression; details: general statement
RUNX2 mRNA [2] = assay: RUNX2 mRNA expression by qPCR in lung cancer cells A549; format: cell-based
Procedure: (§1) Cells are seeded in medium dishes (6 cm), cultured overnight, when the cell confluency is 80%, the original medium is discarded, PBS rinses the cells, and then replaced with Fostamatinib containing a final concentration of 10 uM or other concentrations, after 6-12 hours, the cells are harvested, RNA and protein liquid are extracted, and the protein and mRNA expression changes of RUNX2 are detected by Western blot and qPCR experiments, respectively.

RUNX2 mRNA [3] = assay: RUNX2 mRNA expression by qPCR in lung cancer cell H1299; format: cell-based; details: H1299 cells
Procedure: as §1

RUNX2 mRNA [4] = assay: Animal testing (intraperitoneal injection): RUNX2 mRNA in mouse liver tissue by qPCR; format: in vivo, C57BL/6 male mice; details: mice, 40 mg/kg intraperitoneal injection, 4 consecutive days, liver collected 48 hours after last injection, FIG. 6
Procedure: • Drug: Fostamatinib MCE(HY-13038A) • Mice: 8-week-old C57BL/6 male mice • Concentration of administration: 40 mg/kg • Mode of administration: intraperitoneal injection
Experimental steps: mice are randomly divided into two groups, experimental group (fostamatinib) and control group (mock), before daily experiments, a certain amount of fostamatinib is accurately weighted and dissolve in 0.5% CMC ([…] cellulose), fully pipetted into a uniform suspension, the concentration of 4 mg/ml, and ready for use. According to the injection volume of 100 ul/10 g per mouse, the intraperitoneal injection was carried out for 4 consecutive days. The mouse liver tissue was collected 48 hours after the last injection, RNA was extracted, and the mRNA expression level of RUNX2 was detected by real-time fluorescence quantitative PCR (qPCR).

RUNX2 [5] = assay: RUNX2 protein expression by Western blot in hepatoma cells BEL-7402; format: cell-based; details: BEL-7402 cells, 0, 2.5, 5 and 10 uM for 6 h, FIG. 5
Procedure: as §1

RUNX2 [6] = assay: RUNX2 protein expression by Western blot in lung cancer cells A549; format: cell-based
Procedure: as §1

RUNX2 [7] = assay: RUNX2 protein expression by Western blot in lung cancer cell H1299; format: cell-based; details: H1299 cells
Procedure: as §1

[8] = treated 8 hours, Fostamatinib 10 uM or other concentrations, FIG. 2
[9] = treated 6 hours, antibody changed, FIG. 3
[10] = treated 8 hours, Fostamatinib 10 uM or other concentrations, FIG. 1

| SMILES | expression of Runx2 (RUNX2 [1]) | mRNA level of RUNX2 (RUNX2 mRNA [2]; 6 hours, FIG. 4) | mRNA expression level of RUNX2 (RUNX2 mRNA [2]; [8]) | mRNA level of RUNX2 (RUNX2 mRNA [3]; 6 hours, FIG. 4) | mRNA expression level of RUNX2 (RUNX2 mRNA [3]; [8]) | mRNA expression level of RUNX2 in liver tissue (RUNX2 mRNA [4]) | expression level of RUNX2 protein (RUNX2 [5]) | protein expression level of RUNX2 (RUNX2 [6]; [9]) | protein expression level of RUNX2 (RUNX2 [6]; [10]) | protein expression level of RUNX2 (RUNX2 [7]; [9]) | protein expression level of RUNX2 (RUNX2 [7]; [10]) |
| --- | --- | --- | --- | --- | --- | --- | --- | --- | --- | --- | --- |
| COc1cc(Nc2ncc(F)c(Nc3ccc4c(n3)N(COP(=O)(O)O)C(=O)C(C)(C)O4)n2)cc(OC)c1OC [Fostamatinib] | significantly down-regulate | significantly reduced | decreases significantly | significantly reduced | decreases significantly | significantly reduce | significantly reduced and dose-dependent | down-regulated a certain trend | tends to decrease | down-regulated a certain trend | tends to decrease |
| CNC(=O)c1cc(Oc2ccc(NC(=O)Nc3ccc(Cl)c(C(F)(F)F)c3)c(F)c2)ccn1 [Regorafenib] | significantly down-regulate |  |  |  |  |  |  |  |  |  |  |
| COc1ccc2[nH]cc(CCNC(C)=O)c2c1 [melatonin, Melatonin] | significantly down-regulate |  |  |  |  |  |  |  |  |  |  |

Source: patent US12693289B2, “Application of compounds in the preparation of reagents for down-regulation of RUNX2” (Geneheal Biotechnology Co., Ltd., priority 2020, dated 2026)
